The values that follow come from PubChem BioAssay (NCI).

Among the test systems are OVCAR-3 ovarian; HOP-62 NSCLC; ACHN renal; U251 CNS; HL-60(TB) leukemia; NCI-H522 lung; NCI-H23 lung; IGROV1 ovarian; CCRF-CEM leukemia; RXF 393 renal.
Experiment in all cases: DTP human tumour cell line panel, 48 h

Each structure is given as a SMILES string.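 Cultured in 96-well plates, cells were exposed to test compound for 48 hours across five concentrations. TGI: total growth inhibition.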 Where only a bound is given, the exact number is not on record here.

What is called TGI is the concentration at which net growth stops. A lower TGI goes with greater sensitivity of the cells. Take `CCC(CC)(CO)CNc1cc(Cl)nc(N)n1`: the TGI in the assay with OVCAR-3 ovarian, in the assay with HOP-62 NSCLC, with ACHN renal, with U251 CNS, with HL-60(TB) leukemia and in the assay with NCI-H522 lung was over 100 µM each time. For the same molecule, the TGI in the assay on NCI-H23 lung, in the assay on IGROV1 ovarian, in the assay on CCRF-CEM leukemia and in the assay with RXF 393 renal was over 100 µM in each case.

As for `O=[N+]([O-])c1cc2ccc(N(CCO)CCO)nc2nc1N(CCO)CCO`, the TGI with OVCAR-3 ovarian, in the assay with HOP-62 NSCLC, in the assay with ACHN renal, in the assay with U251 CNS, in the assay with HL-60(TB) leukemia and with NCI-H522 lung was over 100 µM each time. Moreover, the TGI in the assay on NCI-H23 lung, with IGROV1 ovarian, with CCRF-CEM leukemia and in the assay on RXF 393 renal was over 100 µM throughout.

For the molecule `O=C(O)c1c2c(cc3c1CC1(Cc4cc5c(cc4C1=O)CCC5)C3)CCC2` (centres undefined), the TGI with OVCAR-3 ovarian, in the assay on HOP-62 NSCLC, in the assay with ACHN renal, with U251 CNS, with HL-60(TB) leukemia and in the assay with NCI-H522 lung was over 100 µM each time. Besides, the TGI with NCI-H23 lung, with IGROV1 ovarian, in the assay on CCRF-CEM leukemia and with RXF 393 renal was over 100 µM each time.

With `CCCOP(=O)(OCCC)OC(C(F)(F)F)C(F)(F)F`, the TGI with OVCAR-3 ovarian, in the assay on HOP-62 NSCLC, in the assay with ACHN renal, with U251 CNS, with HL-60(TB) leukemia and in the assay with NCI-H522 lung was over 100 µM in each case. Moreover, the TGI with NCI-H23 lung, in the assay on CCRF-CEM leukemia and with RXF 393 renal was over 100 µM in each case.

In the case of `COc1cc2c(cc1Oc1c(Oc3c(O)c(OC)cc4c3C(CC(C)C)N(C)CC4)c(OC)cc3c1C(CC(C)C)N(C)CC3)C(CC(C)C)N(C)CC2` (centres undefined), the TGI in the assay with OVCAR-3 ovarian was 11.4 µM; with HOP-62 NSCLC, 3.76 µM; in the assay with U251 CNS, 6.22 µM; in the assay on HL-60(TB) leukemia, 8.16 µM; with NCI-H522 lung, 3.58 µM; with NCI-H23 lung, 4.91 µM. In addition, the TGI in the assay with IGROV1 ovarian was 15.1 µM; with CCRF-CEM leukemia it was 6.3 µM; with RXF 393 renal, 3.28 µM.

For the molecule `COc1ccc(NC(C(N)=O)c2cc3cc(Br)ccc3nc2Cl)cc1` (centres undefined), the TGI with OVCAR-3 ovarian, with HOP-62 NSCLC, with ACHN renal, with HL-60(TB) leukemia, in the assay on NCI-H522 lung and with NCI-H23 lung was over 100 µM each time. Moreover, the TGI in the assay with IGROV1 ovarian, in the assay with CCRF-CEM leukemia and in the assay on RXF 393 renal was over 100 µM each time.

In the case of `Cc1nc2c(cc1OCc1ccccc1)C(=O)C1=C(C2=O)C2OC(=O)CC2OC1(C)C` (centres undefined), the TGI in the assay on HOP-62 NSCLC came out at 2.87 µM; in the assay on ACHN renal, 1.86 µM; with U251 CNS, 2.14 µM; with HL-60(TB) leukemia, 0.371 µM; in the assay on NCI-H522 lung, 0.387 µM; with NCI-H23 lung, 2.32 µM. Moreover, the values for the TGI with IGROV1 ovarian, in the assay on CCRF-CEM leukemia and in the assay on RXF 393 renal were 1.31 µM, 0.451 µM and 1.64 µM, respectively.

For the molecule `CCOC(=O)CCN1C(=O)C(=O)N(c2ccc(OC)cc2)C1=S`, the TGI in the assay with HOP-62 NSCLC, in the assay with ACHN renal, in the assay on U251 CNS, with HL-60(TB) leukemia, in the assay with NCI-H522 lung and in the assay on NCI-H23 lung was over 100 µM throughout. Further, the TGI in the assay on IGROV1 ovarian, in the assay with CCRF-CEM leukemia and in the assay on RXF 393 renal was over 100 µM in each case.

For `CCN(CC)c1ccc(/C=C2\CCc3ccc([N+](=O)[O-])cc3C2=O)cc1`, the TGI is 56.9 µM in the assay on OVCAR-3 ovarian; over 100 µM in the assay on ACHN renal; over 100 µM with U251 CNS; 5.33 µM in the assay with HL-60(TB) leukemia; over 100 µM in the assay with NCI-H522 lung; over 100 µM in the assay with NCI-H23 lung. Besides, the TGI in the assay with IGROV1 ovarian is over 100 µM; in the assay on CCRF-CEM leukemia it was over 100 µM; in the assay on RXF 393 renal, over 29.9 µM.

In the case of `C=CCOC(=O)N1c2ccc(O)cc2[C@@]23O[C@@]24[C@@H]1C#C/C=C\C#C[C@]3(O)C(OC)(OC)C[C@@H]4C`, the TGI in the assay on HOP-62 NSCLC was 85.9 µM; in the assay on ACHN renal, 72.3 µM; with U251 CNS, over 100 µM; in the assay with HL-60(TB) leukemia it was 72 µM; with NCI-H522 lung, 74.6 µM; with NCI-H23 lung, 93 µM. Moreover, the TGI is 80.8 µM in the assay with IGROV1 ovarian, 76.8 µM in the assay on CCRF-CEM leukemia and over 100 µM in the assay with RXF 393 renal.

For the molecule `Cc1cc2c(cc1C)C(=O)C1(C2)Cc2cc3c(cc2C1=O)CCC3` (centres undefined), the TGI in the assay on OVCAR-3 ovarian, in the assay on ACHN renal, in the assay with U251 CNS, in the assay on HL-60(TB) leukemia, in the assay with NCI-H522 lung and in the assay with NCI-H23 lung was over 100 µM each time. The TGI in the assay on IGROV1 ovarian, in the assay with CCRF-CEM leukemia and in the assay on RXF 393 renal was over 100 µM throughout.

Turning to `O=C(N/N=C\c1cccc2ccccc12)Nc1cccc2ccccc12`, the TGI is 23.1 µM in the assay on HOP-62 NSCLC; over 100 µM in the assay with ACHN renal; 34.9 µM with U251 CNS; 60.8 µM in the assay with HL-60(TB) leukemia; over 100 µM in the assay with NCI-H522 lung; over 100 µM with NCI-H23 lung. The TGI is over 100 µM with IGROV1 ovarian, over 100 µM in the assay with CCRF-CEM leukemia and 43.4 µM in the assay with RXF 393 renal.

Consider `CNC(=O)SCC(NC(=O)CCC(N)C(=O)O)C(=O)NCC(=O)O` (centres undefined), for which the TGI was over 100 µM with OVCAR-3 ovarian; over 100 µM with HOP-62 NSCLC; over 100 µM in the assay on U251 CNS; over 31.6 µM with HL-60(TB) leukemia; over 100 µM with NCI-H522 lung; over 100 µM with NCI-H23 lung. Moreover, the TGI in the assay on IGROV1 ovarian, in the assay on CCRF-CEM leukemia and in the assay with RXF 393 renal was over 100 µM in each case.

For `C=CC(C)C1(CCCOCc2ccccc2)C(=S)N2CCC3(CC24CCCC14)OCCO3` (centres undefined), the TGI with OVCAR-3 ovarian was over 100 µM; with ACHN renal it was over 100 µM; in the assay on U251 CNS it was over 100 µM; with HL-60(TB) leukemia, 5.2 µM; in the assay on NCI-H522 lung, 64.4 µM; in the assay on NCI-H23 lung, over 100 µM. Also, the TGI in the assay with IGROV1 ovarian, in the assay on CCRF-CEM leukemia and in the assay on RXF 393 renal was over 100 µM in each case.
